The numbers were not newly measured in patent publication US20230226068A1, “METHOD, SYSTEM, FORMULATION AND KIT FOR THE TREATMENT OF ONYCHOMYCOSIS” (priority 2021, published 2023), which cites them from elsewhere.

For this data set the following is noted: for side effects: po.

Molecules are shown by their SMILES. Like-named read-outs stand apart in the source and are kept apart here.

In the case of `OC(Cn1cncn1)(Cn1cncn1)c1ccc(F)cc1F` [Fluconazole], the side effects entry (in vivo) is given as “liver enzyme abnormalities, headaches, as well as gastrointestinal problems or rashes”.
On to `Cc1cc(C2CCCCC2)n(O)c(=O)c1` [Ciclopirox], for which, under “in vivo”, the safety profile result was “local skin irritations”.
Take `C=C1CCN([C@H](C)[C@](O)(Cn2cncn2)c2ccc(F)cc2F)CC1` [Efinaconazole]: the safety profile entry (in vivo) is “local skin irritations”.
As for `OB1OCc2cc(F)ccc21` [Tavaborole], the safety profile entry (topical treatment) is recorded as “local skin irritations”.
`CCC(C)(C)c1ccc(CC(C)CN2C[C@@H](C)O[C@@H](C)C2)cc1` (stereo partly shown) [Amorolfine]: the safety profile entry (in vivo) was “local skin irritations”.
On to `CCC(C)n1ncn(-c2ccc(N3CCN(c4ccc(OCC5COC(Cn6cncn6)(c6ccc(Cl)cc6Cl)O5)cc4)CC3)cc2)c1=O` (stereo not shown) [Itraconazole], for which the side effects entry (in vivo) is given as “liver enzyme abnormalities, headaches, as well as gastrointestinal problems or rashes”.
Consider `CN(C/C=C/C#CC(C)(C)C)Cc1cccc2ccccc12` [Terbinafine], for which the side effects entry (in vivo) is given as “liver enzyme abnormalities, headaches, as well as gastrointestinal problems or rashes”.
